The source made the active and inactive calls. No cut-off for these calls is given here.
Tests used:
MCF7 [1] = assay: Induction of apoptosis in human MCF7 cells assessed as of p21 protein expression at 4 uM by Western blot analysis relative to control; type: functional, cell-based
[2] = Growth inhibition of human BT549 cells after 48 hrs by SRB assay; type: functional; details: BT-549, 48 h
MCF7 [3] = assay: Cell cycle arrest in human MCF7 cells assessed as accumulation at S phase at 4 uM after 24 hrs by propidium iodide staining-based flow cytometry (reference value: 20.17%); type: functional
[4] = Growth inhibition of human UACC257 cells after 48 hrs by SRB assay; type: functional; details: UACC-257, 48 h
[5] = Growth inhibition of human UACC62 cells after 48 hrs by SRB assay; type: functional; details: UACC-62, 48 h
PC-3 = assay: Growth inhibition of human PC3 cells after 48 hrs by SRB assay; type: functional; details: PC-3, 48 h
SN12C = assay: Growth inhibition of human SN12C cells after 48 hrs by SRB assay; type: functional
DU-145 = assay: Growth inhibition of human DU145 cells after 48 hrs by SRB assay; type: functional; details: DU-145, 48 h
SF-268 = assay: Growth inhibition of human SF268 cells after 48 hrs by SRB assay; type: functional; details: SF-268, 48 h
TK-10 = assay: Growth inhibition of human TK10 cells after 48 hrs by SRB assay; type: functional; details: TK-10, 48 h
M14 = assay: Growth inhibition of human M14 cells after 48 hrs by SRB assay; type: functional; details: M14, 48 h
IGROV-1 = assay: Growth inhibition of human IGROV1 cells after 48 hrs by SRB assay; type: functional; details: IGROV-1, 48 h
HL-60(TB) = assay: Growth inhibition of human HL-60(TB) cells after 48 hrs by SRB assay; type: functional; details: HL-60, 48 h
[6] = Growth inhibition of human MOLT4 cells after 48 hrs by SRB assay; type: functional; details: MOLT-4, 48 h
[7] = Growth inhibition of human SF295 cells after 48 hrs by SRB assay; type: functional; details: SF-295, 48 h
MCF7 [8] = assay: Induction of apoptosis in human MCF7 cells assessed as increase in TNFR1 protein level at 4 uM by Western blot analysis relative to control; type: functional, cell-based
CAKI-1 = assay: Growth inhibition of human Caki1 cells after 48 hrs by SRB assay; type: functional; details: CAKI-1, 48 h
NCI-H226 = assay: Growth inhibition of human NCI-H226 cells after 48 hrs by SRB assay; type: functional; details: NCI-H226, 48 h
MCF7 [9] = assay: Growth inhibition of human MCF7 cells after 48 hrs by SRB assay; type: functional; details: MCF7, 48 h

COc1ccc(C(=O)/C=C/c2c(C(F)(F)F)nc3ccccn23)cc1OC
Activity (MCF7 [1]): inactive | GI50 [2]: 2590 nM | Activity (MCF7 [3]): 1.83% | GI50 [4]: 620 nM | GI50 [5]: 2220 nM | GI50 (PC-3): 2730 nM | GI50 (SN12C): 1910 nM | GI50 (DU-145): 650 nM | GI50 (SF-268): 1570 nM | GI50 (TK-10): 3780 nM | GI50 (M14): 3630 nM | GI50 (IGROV-1): 440 nM | GI50 (HL-60(TB)): 1520 nM | GI50 [6]: 1030 nM | GI50 [7]: 3150 nM | Activity (MCF7 [8]): Active | GI50 (CAKI-1): 2500 nM | GI50 (NCI-H226): 4550 nM | GI50 (MCF7 [9]): 560 nM
